# Data from patent publication US11071747B2, “Use of NAD precursors for breast enhancement” (UNIVERSITY OF IOWA RESEARCH FOUNDATION, priority 2016, dated 2021).
# Entries after “also recorded” stand apart in the source; their conditions may differ.
# Legend:
# [1] = system: mammary glands of lactating mice; assay: NR-supplemented diet in lactating female mice, mammary gland mass and Carmine/Alum staining; type: in vivo, C57BL/6N mice
# Source text: FIGS. 1A-B. NR increases the mass of mammary glands of lactating mice. C57BL/6 female mice were fed normal chow (NC) diet and mated to a C57BL/6 male. After gestation and birth, females remained on NC or were on or a diet supplemented with 3 g/kg nicotinamide riboside chloride (NR). At day 14, the females were sacrificed and mammary glands 1-5 were removed for analysis. FIG. 1A. […] FIG. 1B. Mammary glands 4 and 5 isolated from lactating females were stained with Carmine/Alum staining.
# The data are based on a trial with female C57BL/6N mice raised in 12 hour light:dark cycles on Teklad 2920X chow (NC). It was asked whether addition of NR chloride (3 g/kg of chow) to the diet of female mice would augment mammary tissue. Accordingly, for 12 weeks prior to mating with a single C57BL/6N male, females were on either NC (n=4) or NC+NR (n=4). Females were maintained on the same diet for 14 days post-partum.
# [2] = system: mammary glands of virgin female mice; assay: NR oral supplementation in virgin female mice, mammary gland development; type: in vivo
# Source text: FIGS. 2A-E. NR oral supplementation promotes mammary gland development in virgin female mice (non-lactating females). FIG. 2A. […] FIG. 2B. Carmine/Alum staining of mammary glands. FIG. 2C. Quantification of mammary gland ductal length can be assessed by taking the measurement of the left (L1), right (L2), top (L3) and bottom (L4) branchings expressed in cm. FIG. 2D. […] FIG. 2E.
# mammary gland of rats = assay: Xylene clearing of mammary adipose tissue of NR-fed rats; type: in vivo
# Source text: (§1) FIGS. 5A-B. NR-supplemented mammary tissue is partially resistant to xylene extraction. FIG. 5A. […] Eight month-old female mice were on NC or NR diet for six weeks. Mammary glands #4-5 were isolated, fixed, stained with Carmine/Alum stain and xylene was use to extract fat. […] FIG. 5B. NR-fed rats have mammary gland with a different fat composition.
# [3] = system: mammary gland #4-5 and brown adipose tissue of female rats; assay: NR diet in virgin female rats, mammary gland and brown adipose tissue weight; type: in vivo; conditions: NR diet vs normal chow
# Method: FIGS. 3A-C. […] Adipose tissues of female rats on normal chow diet (NC) or normal chow with nicotinamide riboside (NR). FIG. 3A. Mammary gland #4-5 were isolated and the weight was recorded. […] FIG. 3B. Images of dissected mammary gland #4-5. FIG. 3C. Weight of brown adipose tissue (BAT). To determine if the effect of NR on females was a mouse-specific phenomenon, additional experiments were performed. Specifically, virgin female rats were fed either NC or NR diets prior to dissection.
# mammary glands #4 and 5 = assay: NR diet for six weeks in eight month-old female and male mice, mammary gland weight; type: in vivo; conditions: NR diet six weeks vs NC
# Method: FIG. 4. NR increases mammary gland tissue weight of female but not male mice. Eight month-old mice were put on NC or NR diet for six weeks. Mammary glands #4 and 5 were measured and plotted by normalizing to the body weight of each mouse. […] In FIG. 4, eight month-old mice were put on normal chow (NC) or NC+NR (NR) diets for six weeks. Mammary glands #4 and 5 were measured and plotted by normalizing to the body weight of each mouse.
# [4] = system: mammary glands of female rodents; assay: NR-supplemented diet in adult female rodents, overall findings; type: in vivo, mice and rats
# Method: As described herein, a series of experiments were performed to examine the effect of nicotinamide riboside (NR) on mammary tissue. It was determined that the provision of NR in the diet of female mice and female rats promoted mammary development (e.g., increases mammary gland tissue weight). […] These experiments show the unanticipated and potentially value effect of supplementing females with NR or other NAD precursors.
# [5] = system: mammary glands #4-5 of female mice; assay: Xylene extraction of fat from stained mammary glands of NR-fed female mice; type: in vivo; conditions: eight month-old female mice, NR diet six weeks
# Source text: as §1, with “composition. […] Eight month-old female mice were on NC or NR diet for six weeks. Mammary glands #4-5 were isolated, fixed, stained with Carmine/Alum stain and subjected to an extraction with xylene to remove fat.” for “composition.”
smiles,measurement,setting,value
"NC(=O)c1ccc[n+]([C@@H]2O[C@H](CO)[C@@H](O)[C@H]2O)c1 [NR, nicotinamide riboside]",mass of mammary glands,"[1]; lactating C57BL/6 females, diet with 3 g/kg NR chloride vs normal chow, day 14 post-partum, mammary glands 1-5",more mammary tissue than those on normal chow; also recorded: more massive mammary glands
same,lactating mammary tissue (Carmine/Alum staining),"[1]; lactating females, mammary glands 4 and 5, NR diet vs normal chow",more lactating mammary tissue
same,mammary gland with beige fat,"[2]; twelve week-old virgin female mice, NR supplementation for two weeks",more mammary gland with beige fat
same,surface area of mammary gland #4-5,"[2]; virgin female mice, NR oral supplementation",increases the surface area of mammary gland #4-5
same,mammary gland ductal length measurements,"[2]; virgin female mice, NR oral supplementation, L1-L4 branchings",increases ductal length measurements
same,subcutaneous adipose tissue and epithelial duct branching,"[2]; virgin mice, not exposed to males",significant increase of the subcutaneous adipose tissue and epithelial duct branching
same,clearing of mammary adipose tissue by xylene,mammary gland of rats,poorly cleared by xylene
same,weight of brown adipose tissue (BAT),[3]; female rats,increases the mass of mammary gland #4 and #5 and brown adipose tissue (BAT)
same,weight of mammary gland #4-5,[3]; virgin female rats,increased the size of mammary tissues in rats; also recorded: more mammary gland tissue
same,mammary gland #4 and 5 weight normalized to body weight,mammary glands #4 and 5; eight month-old female mice,more mammary gland tissue in comparison to the NC group
same,mammary gland #4 and 5 weight normalized to body weight,mammary glands #4 and 5; eight month-old male mice,no significant increase in mammary tissue weight
same,development of beige or brown fat,"[4]; NR supplementation, female rodents",leads to development of beige or brown fat
same,"fat pad formation, epithelial branching, alveolar and lobule development of mammary glands","[4]; adult females, virginal or pregnant, diet supplemented with NR","increase in fat pad formation, epithelial branching, alveolar and lobule development"
same,fat composition of the mammary gland,[5],changes the fat composition of the mammary gland
same,fat remaining in mammary glands after xylene extraction,[5]; 1 week of incubation in xylene,more fat remaining
